Reference: ChEMBL document CHEMBL1157463, “Interaction of methimazole with I2: X-ray crystal structure of the charge transfer complex methimazole-I2. implications for the mechanism of action of methimazole-based antithyroid drugs” (J Med Chem, 2008)

Assay: Antioxidant activity assessed as inhibition of lactoperoxidase-catalyzed oxidation of 2,2'-azinobis([…])
Format: functional

SMILES | IC50 [µM]
Cn1cc[nH][c+]1SS[c+]1[nH]ccn1C.[O-][Cl+3]([O-])([O-])[O-].[O-][Cl+3]([O-])([O-])[O-] | 1.4
Cn1ccnc1S [METHIMAZOLE] | 5.6
